“Also recorded” adds a separate entry of the source.
Assays:
[1] = Blood levels of orally administered antibiotics; assay type: in vivo, rat; conditions: antibiotic given in drinking water; detection limit of assay 1 μM
Text: Dahl S rats are an established model of increased susceptibility to injury from myocardial ischemia/reperfusion (Baker, J. et al. “Resistance to myocardial ischemia in five rat strains: is there a genetic component of cardioprotection?” Am. J. Physiol. Heart Circ. Physiol. 278, H1395-H1400, 2000, Shi, Y. et al. “Increased resistance to myocardial ischemia in the Brown Norway vs. Dahl S rat: role of nitric oxide synthase and Hsp90.” J. Mol. Cell. Cardiol. 38(4):625-635, 2005). […] A minimum treatment time of 48 h with vancomycin was needed to decrease IS. A return to control values for myocardial IS at 72 h following discontinuation of vancomycin was observed (FIG. 5). To determine whether this decrease in IS was a direct effect of antibiotic present in the coronary vasculature, blood levels of vancomycin were measured. The concentration of vancomycin in blood was below detection limits of the assay used (1 μM). […]
Infarct size was measured in rats treated with the antibiotic mixture using the method described in example 3. […] To determine whether the decrease in infarct size was a direct effect of antibiotics present in the coronary vasculature, blood levels of streptomycin, neomycin, bacitracin and polymyxin B were measured. […]

rats = test: Myocardial ischemia/reperfusion by the protocol of example 3 (model not given); assay type: in vivo, rat; conditions: antibiotics in drinking water
Text: In the following example, methods for assaying myocardial infarction in vitro and in vivo in rats as determined by ischemia/reperfusion studies are described.
(§1) An anesthetized rat model was used for in vivo ischemia/reperfusion studies using the general surgical protocol and determination of infarct size (IS) described in “K(ATP) opener-induced delayed cardioprotection: involvement of sarcolemmal and mitochondrial K(ATP) channels, free radicals and MEK½” (Gross, E. et al., J. Mol. Cell. Cardiol. 35, 985-992, 2003), the entirety of which is incorporated herein by reference. Briefly, following anesthesia, a tracheotomy for artificial ventilation was performed, with the left common carotid artery cannulated for blood pressure and heart rate measurements. A thoracotomy was performed at the fifth intercostal space, the pericardium was excised, and a silk ligature was placed distal to the left atrial appendage that spanned to the sternal portion of the left ventricle, which included the left anterior descending coronary artery. Occlusion of the area described [area at risk (AAR)] was created by placing ends of the ligature through a polypropylene tube and fixing the snare to the epicardial surface with a hemostat. After 30 min, the hemostat was released to reperfuse the AAR. Following 2 h of reperfusion, the ligature was again occluded, and the AAR was determined by patent-blue negative staining. The heart was then excised, cross-sectioned into 4 to 5 slices, and separated into normal zone and AAR. Pieces were incubated in 1% 2,3,5-triphenyltetrazolium chloride to determine IS. The heart was then incubated overnight in 10% formaldehyde, and infarcted tissue was dissected from the AAR. IS was expressed as a percentage of the AAR (IS/AAR). Leptin (0.12 μg/kg) was administered intravenously as a bolus at 24 and 12 h before ischemia. Amino acids were administered intravenously as a bolus at 24 and 12 hours before ischemia or dissolved in the drinking water and given 48 hours before ischemia.
(§2) For in vitro ischemia/reperfusion studies, hearts were perfused retrogradely, as described previously in Baker, J. et al. (Am. J. Physiol. Heart Circ. Physiol., 2000), the entirety of which is incorporated herein by reference. Briefly, hearts were perfused with modified Krebs-Henseleit buffer (120 mM NaCl, 25 mM NaHCO3, 4.7 mM KCl, 1.2 mM KH2PO4, 1.20 mM MgSO4, 11 mM glucose, and 1.8 mM CaCl2) bubbled with 95% O2-5% CO2 for a 40-minute stabilization period and subjected to 25 minutes of global no-flow ischemia, followed by 180 minutes of reperfusion. Before use, all perfusion fluids were filtered through cellulose acetate membranes with a pore size of 5.0 μm to remove particulate matter. Hearts were kept in temperature-controlled chambers to maintain myocardial temperature at 37° C. A balloon connected to a pressure transducer was inserted into the left ventricle to monitor cardiac function. For some experiments, hearts were stabilized for 25 minutes and then perfused with vancomycin or a mixture of antibiotics for 15 minutes before ischemia/reperfusion. During the initial 40 minute reperfusion period, recovery of mechanical function was measured as left ventricular developed pressure (LVDP) under steady-state conditions and expressed as a percentage of preischemic LVDP. At the end of the 3 hour reperfusion period, hearts were processed and stained with 2,3,5-triphenyltetrazolium chloride dye for IS determination.

isolated hearts = test: In vitro global ischemia/reperfusion of isolated perfused hearts, infarct size and recovery of LVDP; design: species or system rat
Experimental: as §2

Dahl S rats = test: In vivo regional myocardial ischemia/reperfusion, infarct size (IS/AAR); design: species or system rat
Text: as §1

Which concentration in blood [1] does the source give for `CN[C@H](CC(C)C)C(=O)N[C@H]1C(=O)N[C@@H](CC(N)=O)C(=O)N[C@H]2C(=O)N[C@H]3C(=O)N[C@H](C(=O)N[C@H](C(=O)O)c4cc(O)cc(O)c4-c4cc3ccc4O)[C@H](O)c3ccc(c(Cl)c3)Oc3cc2cc(c3O[C@@H]2O[C@H](CO)[C@@H](O)[C@H](O)[C@H]2O[C@H]2C[C@](C)(N)[C@H](O)[C@H](C)O2)Oc2ccc(cc2Cl)[C@H]1O` [vancomycin, Vancomycin] here?
Its concentration in blood is < 1000 nM.

What about the “response of susceptibility to ischemia/reperfusion injury” value (rats; Dahl S rats) of the same molecule?
The value was “sensitive”.

And the “response of susceptibility to ischemia/reperfusion injury” value (rats; Sprague Dawley rats)?
Its value is “intermediate response”.

What about the “response of susceptibility to ischemia/reperfusion injury” value (rats; WAG/RijCmcr rats) of the same molecule?
The value was “resistant”.

And the “effect on IS when added directly to coronary perfusate” value (isolated hearts; 1 μM in perfusate, in vitro ischemia/reperfusion)?
Its value is “no reduction in IS; also recorded: no effect on severity of myocardial infarction; also recorded: did not reduce IS in vitro”.

And the “effect on infarct size of isolated hearts” value (isolated hearts; antibiotic added to the drinking water, then excluded from coronary circulation)?
Its value is “reduced IS”.

And the “decrease in IS” value (isolated hearts; antibiotic in drinking water, then excluded from coronary perfusate, in vitro ischemia/reperfusion)?
The value was 29%.

And the “time after treatment ceased at which cardioprotection was lost” value (isolated hearts; vancomycin in drinking water)?
Its value is 3 days.

And the “time of treatment within which cardioprotection was established” value (isolated hearts; vancomycin in drinking water)?
The value was ≤ 2 days.

What about the “reduction in myocardial IS” value (Dahl S rats; Dahl S rats, antibiotic in drinking water 7 d, in vivo regional ischemia/reperfusion) of the same molecule?
Its value is ~27%.

What about the “effect on infarct size in vivo” value (Dahl S rats; antibiotic added to the drinking water) of the same molecule?
The value was “reduced infarct size (IS) in vivo”.

What about the “decrease in infarct size” value (Dahl S rats; vancomycin 15 mg/kg/day for 72 hours, thrombopoietin i.v. 15 minutes prior to ischemia) of the same molecule?
Its value is 28%.

— US20130052172A1, “METHODS FOR DIAGNOSING AND TREATING CARDIAC DEFECTS” (priority 2011, published 2013)
